Measurements published in patent US9448243B2, “Weak affinity chromatography” (priority 2013, dated 2016).

Legend:
[1] = biological target: human serum albumin (HSA) (Homo sapiens, UniProt P02768); test: Weak affinity chromatography of steroids on HSA column; format: binding; conditions: for Kd: Column D, HSA 99% purity column; for k′ (capacity factor), Column D: HSA 99% purity, 118 mg/g silica, 20° C.
Experimental: (§1) Four columns were prepared, a blank diol-silica column (column A) having no binding ligands and 3 columns (columns B, C, D) loaded with albumin as the binding ligand. Column B was a silica packed column (7 μm, 300 Å porosity) loaded with 96% purity bovine serum albumin (BSA) at a concentration of 66 mg of BSA per gram of silica. Column C was a silica packed column (7 μm, 300 Å porosity) loaded with 99% purity bovine serum albumin (BSA) at a concentration of 77 mg of BSA per gram of silica. Column D was a silica packed column (7 μm, 300 Å porosity) loaded with 99% purity human serum albumin (HSA) at a concentration of 118 mg of HSA per gram of silica. All four column dimensions were 2.1×50 mm stainless steel. Immobilization of the ligands was performed batchwise with periodate activation. 0.5 g of diol-silica was used with 5 ml of H2O added. The silica was sonicated for 2 minutes, and 0.5 g of periodic acid was added to convert the diol groups to aldehyde-groups. After 2 hours of mixing, the aldehyde-silica was washed with 100 mM phosphate, pH 7.0. 5 ml of the respective ligand in 100 mM phosphate buffer, pH 7.0, was prepared. Ligand concentration was 10 mg/ml. 250 μl NaCNBH3, concentration of 0.1 mg/ml, was added. Coupling time was 40 hours at room temperature (22° C.) on mixing table.
(§2) The system comprised the columns used in an Agilent 1200-LC-MS system. The steroids were all dissolved in ethanol at a concentration of 0.05 μg/μl. 2 μl samples were run in duplicate. Solvent buffers used included phosphate buffered saline (PBS) at pH 7.4 and 5 mM ammonium-acetate (Am-Ac) salt, pH 6.9. Column temperature was 20° C. with a flow rate of 0.400 ml/min. Detection included the use of UV diode-array detector (DAD) at 237 nm.
(§3) The columns were tested with the PBS buffer and the Am-Ac listed above. The capacity factor (k′) and dissociation constant (Kd) were determined as set forth in U.S. Pat. No. 4,879,247 issued on Nov. 7, 1989 to Sten Ohlson, which is hereby incorporated by reference in its entirety.

[2] = biological target: bovine serum albumin (BSA) (Bos taurus, UniProt P02769); test: Weak affinity chromatography of steroids on BSA columns (columns B, C); format: binding; conditions: for k′ (capacity factor), Column B: 66 mg/g silica; for k′ (capacity factor), Column B / k′ (capacity factor), Column C: 20° C.; for k′ (capacity factor), Column C: 77 mg/g silica
Chain of bovine serum albumin (BSA) (P02769 25-607): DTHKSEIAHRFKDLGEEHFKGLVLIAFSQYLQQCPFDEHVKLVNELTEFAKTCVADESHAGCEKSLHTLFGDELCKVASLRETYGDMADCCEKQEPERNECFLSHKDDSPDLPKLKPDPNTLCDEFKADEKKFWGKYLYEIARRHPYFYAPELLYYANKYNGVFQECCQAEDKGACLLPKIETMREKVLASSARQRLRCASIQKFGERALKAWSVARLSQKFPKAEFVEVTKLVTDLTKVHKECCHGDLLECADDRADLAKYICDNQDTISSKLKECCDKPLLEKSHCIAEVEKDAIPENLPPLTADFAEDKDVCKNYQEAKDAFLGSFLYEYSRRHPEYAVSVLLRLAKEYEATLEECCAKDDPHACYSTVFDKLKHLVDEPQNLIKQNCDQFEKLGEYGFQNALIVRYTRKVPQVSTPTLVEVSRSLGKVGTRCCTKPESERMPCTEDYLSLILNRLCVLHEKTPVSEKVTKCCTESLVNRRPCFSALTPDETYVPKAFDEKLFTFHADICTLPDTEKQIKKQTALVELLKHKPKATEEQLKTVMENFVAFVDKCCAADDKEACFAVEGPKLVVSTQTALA
Experimental: as §1, §2, §3

[3] = Column B, 5 mM Am-Ac buffer pH 6.9, BSA 96% purity
[4] = Column B, PBS buffer pH 7.4, BSA 96% purity
[5] = Column C, 5 mM Am-Ac buffer pH 6.9, BSA 99% purity
[6] = Column C, PBS buffer pH 7.4, BSA 99% purity

Chain of human serum albumin (HSA) (P02768 25-609): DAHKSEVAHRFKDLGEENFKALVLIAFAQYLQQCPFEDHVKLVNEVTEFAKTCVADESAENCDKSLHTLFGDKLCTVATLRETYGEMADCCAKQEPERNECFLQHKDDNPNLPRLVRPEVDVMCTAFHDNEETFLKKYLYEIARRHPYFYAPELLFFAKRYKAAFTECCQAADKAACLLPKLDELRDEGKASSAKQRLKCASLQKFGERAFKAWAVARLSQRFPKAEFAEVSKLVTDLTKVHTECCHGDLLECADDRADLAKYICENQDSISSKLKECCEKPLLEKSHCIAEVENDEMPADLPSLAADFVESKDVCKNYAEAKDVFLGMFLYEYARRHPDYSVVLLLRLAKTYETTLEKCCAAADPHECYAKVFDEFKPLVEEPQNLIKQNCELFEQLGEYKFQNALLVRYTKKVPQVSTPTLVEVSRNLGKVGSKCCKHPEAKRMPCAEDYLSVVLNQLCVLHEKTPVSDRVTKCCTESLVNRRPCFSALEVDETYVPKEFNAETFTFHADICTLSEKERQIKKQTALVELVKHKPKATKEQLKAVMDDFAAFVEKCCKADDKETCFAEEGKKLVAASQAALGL

Row | SMILES | Kd ([1]; 5 mM Am-Ac buffer pH 6.9) [µM] | Kd ([1]; PBS buffer pH 7.4) [µM] | Kd [2, 3] [µM] | Kd [2, 4] [µM] | Kd [2, 5] [µM] | Kd [2, 6] [µM] | k′ (capacity factor), Column D ([1]; 5 mM Am-Ac buffer pH 6.9) | k′ (capacity factor), Column D ([1]; PBS buffer pH 7.4) | k′ (capacity factor), Column B ([2]; 5 mM Am-Ac buffer pH 6.9, BSA 96% purity) | k′ (capacity factor), Column C ([2]; 5 mM Am-Ac buffer pH 6.9, BSA 99% purity) | k′ (capacity factor), Column B ([2]; PBS buffer pH 7.4, BSA 96% purity) | k′ (capacity factor), Column C ([2]; PBS buffer pH 7.4, BSA 99% purity)
1 | C[C@]12C=CC(=O)C=C1CC[C@@H]1[C@@H]2[C@@H](O)C[C@@]2(C)[C@H]1CC[C@]2(O)C(=O)CO [Prednisolone, prednisolone] | 596 | 602 | 257 | 230 | 227 | 216 | – | – | – | – | – | –
2 | C[C@]12C=CC(=O)C=C1CC[C@@H]1[C@@H]2C(=O)C[C@@]2(C)[C@H]1CC[C@]2(O)C(=O)CO [Prednisone, prednisone] | 523 | 516 | 288 | 274 | 260 | 250 | 1.78 | 1.74 | 1.01 | 1.17 | 1.07 | 1.23
